Some test systems named below: HS 578T breast; DU-145 prostate; NCI-H522 lung; MALME-3M melanoma; PC-3 prostate; CCRF-CEM leukemia; MDA-N; OVCAR-3 ovarian; SK-MEL-28 melanoma; EKVX NSCLC.
Experiment in all cases: NCI tumour cell line growth inhibition, 48 h

Structures are written as SMILES.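 Growth conditions: 96-well plates. Treatment: test compound, 48 hours, 5 concentrations. Analysis: linear interpolation between bracketing concentrations; unreached endpoints set to highest concentration. TGI: total growth inhibition.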

Consider `N#CN1C2CCC1CC(=O)C2`, for which the TGI in the assay with HS 578T breast, in the assay with DU-145 prostate, in the assay with NCI-H522 lung, with MALME-3M melanoma, with PC-3 prostate and with CCRF-CEM leukemia was over 100 µM in each case. The TGI with MDA-N, with OVCAR-3 ovarian, with SK-MEL-28 melanoma and in the assay with EKVX NSCLC was over 100 µM in each case.
Regarding `CCC/C(Cl)=N\OC(=O)Nc1ccc(F)cc1`, the TGI with HS 578T breast is over 86.4 µM; in the assay on DU-145 prostate it was 31 µM; with NCI-H522 lung, 4.12 µM; with MALME-3M melanoma, 20.5 µM; in the assay on PC-3 prostate, 31.2 µM; in the assay on CCRF-CEM leukemia it was 3.85 µM. Besides, the TGI with MDA-N turned out to be 30.2 µM; with OVCAR-3 ovarian, 9.76 µM; in the assay with SK-MEL-28 melanoma it was 38.4 µM; in the assay on EKVX NSCLC, 32.6 µM.
For the compound `CN(C)CCNc1ccc2c(=O)n(CCN(C)C)c(=O)n3c4ccc(O)cc4c(=O)c1c23`, the TGI is 0.961 µM in the assay on HS 578T breast; 0.0781 µM in the assay with DU-145 prostate; 0.221 µM with NCI-H522 lung; 0.45 µM with MALME-3M melanoma; 4.52 µM in the assay with PC-3 prostate; under 0.01 µM in the assay with CCRF-CEM leukemia. The TGI in the assay with MDA-N was determined as 0.26 µM; in the assay with OVCAR-3 ovarian, 1.29 µM; with SK-MEL-28 melanoma it was 0.863 µM; in the assay with EKVX NSCLC it was 0.57 µM.
As for `c1ccc(/C(=N/Nc2nc3ccccc3s2)C2CCCCC2)nc1`, the TGI was found to be 50 µM in the assay with HS 578T breast; 34.2 µM in the assay on DU-145 prostate; 7.32 µM with NCI-H522 lung; 20.9 µM in the assay with MALME-3M melanoma; 24.3 µM in the assay on PC-3 prostate; 15.4 µM in the assay on CCRF-CEM leukemia. Also, the TGI was determined as 34.2 µM in the assay on MDA-N, 7.6 µM with OVCAR-3 ovarian, 25.8 µM in the assay with SK-MEL-28 melanoma and 25.5 µM in the assay with EKVX NSCLC.
Turning to `COc1ccc([C@H]2[C@H]3COC(=O)[C@H]3C(C#N)=C3Sc4ccccc4N32)cc1`, the TGI is over 100 µM with HS 578T breast; 69.7 µM in the assay on DU-145 prostate; over 68.2 µM in the assay with NCI-H522 lung; over 100 µM in the assay with MALME-3M melanoma; over 100 µM in the assay on PC-3 prostate; 47.7 µM with CCRF-CEM leukemia. The TGI is over 74.4 µM in the assay on MDA-N, 68 µM in the assay on OVCAR-3 ovarian, over 100 µM with SK-MEL-28 melanoma and over 100 µM in the assay on EKVX NSCLC.
Consider `N#Cc1c(-c2ccc(Cl)cc2)c2c(nn3c4ccc5ccccc5c4nnc23)[nH]c1=O`, for which the TGI was 6.54 µM in the assay with HS 578T breast; 4.61 µM in the assay with DU-145 prostate; 3.56 µM with NCI-H522 lung; 3.83 µM in the assay with MALME-3M melanoma; 7 µM in the assay on PC-3 prostate; over 100 µM with CCRF-CEM leukemia. The TGI with MDA-N worked out at 5.78 µM; in the assay on OVCAR-3 ovarian, 3.62 µM; in the assay on SK-MEL-28 melanoma it was 5.28 µM; with EKVX NSCLC it was 27.1 µM.
As to `Oc1cc(Cc2ccccc2)c(Cc2ccccc2)cc1O`, the TGI in the assay with HS 578T breast, in the assay on DU-145 prostate, in the assay with NCI-H522 lung, in the assay with MALME-3M melanoma, with PC-3 prostate and with CCRF-CEM leukemia was over 10 µM each time. Also, the TGI was 3.04 µM in the assay on MDA-N, over 10 µM with OVCAR-3 ovarian, over 10 µM with SK-MEL-28 melanoma and over 10 µM with EKVX NSCLC.
For `CC(C)/C(Cl)=N/OC(=O)Nc1ccc(Br)cc1`, the TGI in the assay with HS 578T breast was determined as 58.4 µM; in the assay with DU-145 prostate it was 27.4 µM; in the assay with NCI-H522 lung, 2.97 µM; in the assay with MALME-3M melanoma it was 3.85 µM; in the assay on PC-3 prostate it was 26.7 µM; with CCRF-CEM leukemia, 2.93 µM. The TGI in the assay with MDA-N was determined as 15.7 µM; in the assay with OVCAR-3 ovarian, 9.5 µM; in the assay on SK-MEL-28 melanoma, 14.1 µM; in the assay on EKVX NSCLC, 4.37 µM.
With `CN(C)CC(O)c1ccc(Cl)c2ccccc12` (stereo not given), the TGI was over 100 µM in the assay on HS 578T breast; over 100 µM with DU-145 prostate; over 100 µM in the assay on NCI-H522 lung; 86 µM in the assay on MALME-3M melanoma; over 72.3 µM in the assay on PC-3 prostate; 53.8 µM in the assay with CCRF-CEM leukemia. Also, the TGI was over 63.8 µM in the assay with MDA-N, over 100 µM in the assay with OVCAR-3 ovarian, 36.3 µM in the assay with SK-MEL-28 melanoma and over 100 µM in the assay with EKVX NSCLC.
Regarding `COC1CC(N)(c2ccccc2)C(O)C(C)O1` (stereo not given), the TGI in the assay with HS 578T breast, in the assay on DU-145 prostate, in the assay with NCI-H522 lung, in the assay with MALME-3M melanoma, with PC-3 prostate and in the assay with CCRF-CEM leukemia was over 100 µM throughout. Besides, the TGI in the assay on MDA-N, in the assay with OVCAR-3 ovarian, in the assay on SK-MEL-28 melanoma and in the assay with EKVX NSCLC was over 100 µM throughout.

The values are drawn from PubChem BioAssay (NCI).
